The assay can be described thus: Binding affinity against sigma receptor in guinea pig brain preparation was estimated using [3H]3-PPP as radioligand.
By Ki is commonly meant the dissociation constant of the complex between target and ligand, obtained from inhibition or displacement. As for `C1=C(c2ccccn2)CCN(CCCCc2ccncc2)C1` [1'-(4-Pyridin-4-yl-butyl)-1',2',3',6'-tetrahydro-[2,4']bipyridinyl], the Ki is 44.5 nM.
Regarding `C1=C(c2c[nH]c3ccccc23)CCN(CCCCc2ccncc2)C1` [3-[1-(4-Pyridin-4-yl-butyl)-1,2,3,6-tetrahydro-pyridin-4-yl]-1H-indole], the Ki was 10.3 nM.
With `C1=C(c2ccc3ccccc3c2)CCN(CCCCc2ccncc2)C1` [4-[4-(4-Naphthalen-2-yl-3,6-dihydro-2H-pyridin-1-yl)-butyl]-pyridine], the Ki is 3.07 nM.
For the compound `C1=C(c2ccccc2)CCN(CCCCc2ccncc2)C1` [4-[4-(4-Phenyl-3,6-dihydro-2H-pyridin-1-yl)-butyl]-pyridine], the Ki was 2.72 nM.
With `C1=C(c2cccs2)CCN(CCCCc2ccncc2)C1` [4-[4-(4-Thiophen-2-yl-3,6-dihydro-2H-pyridin-1-yl)-butyl]-pyridine], the Ki was 2.13 nM.
With `Cc1ccc(C2=CCN(CCCCc3ccncc3)CC2)cc1` [4-[4-(4-p-Tolyl-3,6-dihydro-2H-pyridin-1-yl)-butyl]-pyridine], the Ki is 5.86 nM.
With `Clc1ccc(C2=CCN(CCCCc3ccncc3)CC2)cc1` [4-{4-[4-(4-Chloro-phenyl)-3,6-dihydro-2H-pyridin-1-yl]-butyl}-pyridine], the Ki is 1.04 nM.
Turning to `Fc1ccc(C2=CCN(CCCCc3ccncc3)CC2)cc1` [4-{4-[4-(4-Fluoro-phenyl)-3,6-dihydro-2H-pyridin-1-yl]-butyl}-pyridine], the Ki is 1.75 nM.
On to `COc1ccc(C2=CCN(CCCCc3ccncc3)CC2)cc1` [4-{4-[4-(4-Methoxy-phenyl)-3,6-dihydro-2H-pyridin-1-yl]-butyl}-pyridine], for which the inhibition constant Ki is 0.45 nM.
